Read-outs that look alike come from different tables or passages of the source.
Columns and labels:
[1] = tested on: Puccinia triticina; test: Fungicidal activity: wheat brown rust (PUCCRT), disease control on wheat seedlings; format: in vivo, Puccinia triticina on wheat plants (variety Yuma); conditions: for pest or weed control at 100 ppm: high volume application; for pest or weed control at 121.5 g/ha: low volume application, 121.5 g/H
Procedure, shortened: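 Compounds in acetone diluted with nine volumes of water containing 110 ppm Triton X-100, sprayed to run-off on first-leaf Yuma wheat seedlings, inoculated with P. triticina spores before or after treatment. Plants held overnight in dark dew room at 22° C., 100% RH, then greenhouse at 24° C.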

[2] = tested on: Zymoseptoria tritici; test: Fungicidal activity: leaf blotch of wheat (SEPTTR), disease control on wheat seedlings; format: in vivo, Zymoseptoria tritici on wheat plants (variety Yuma); conditions: for pest or weed control at 100 ppm: high volume application; for pest or weed control at 121.5 g/ha: low volume application, 121.5 g/H
Procedure, shortened: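 Wheat seedlings (cv. Yuma, first-leaf stage) sprayed to run-off with acetone/water solutions containing Triton X-100 (or EC formulations by track spray), inoculated with Z. tritici spores before or after treatment. Kept in a dew chamber, then greenhouse at 20 °C; percent control derived from disease severity relative to untreated plants.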

[3] = tested on: Phakopsora pachyrhizi; test: Fungicidal activity: Asian soybean rust (PHAKPA), disease control on soybean seedlings; format: in vivo
Procedure: Evaluation of Fungicidal Activity: Asian Soybean Rust (Phakopsora Pachyrhizi; Bayer Code PHAKPA)
Technical grades of materials were dissolved in acetone, which were then mixed with nine volumes of H2O containing 0.011% Tween 20. The fungicide solutions were applied onto soybean seedlings using an automated booth sprayer to run-off. All sprayed plants were allowed to air dry prior to further handling.
Soybean plants (variety Williams 82) were grown in soil-less Metro mix, with one plant per pot. Two weeks old seedlings were used for testing. Plants were inoculated either 3 days prior to or 1 day after fungicide treatments. Plants were incubated for 24 h in a dark dew room at 22° C. and 100% relative humidity then transferred to a growth room at 23° C. for disease to develop. Disease severity was assessed on the sprayed leaves.

[4] = 24 h, 1 day protectant, read-out: PUCCRT 1DP disease control, HV activity at 100 ppm
[5] = 72 h, 3 day curative, read-out: PUCCRT 3DC disease control, HV activity at 100 ppm
[6] = 24 h, 1 day protectant, read-out: SEPTTR 1DP disease control, HV activity at 100 ppm
[7] = 72 h, 3 day curative, read-out: SEPTTR 3DC disease control, HV activity at 100 ppm
[8] = 24 h, 1 day protectant, read-out: PHAKPA 1DP disease control at 25 ppm
[9] = 72 h, 3 day curative, read-out: PHAKPA 3DC disease control at 25 ppm
[10] = 24 h, 1 day protectant, read-out: PUCCRT 1DP disease control, LV activity at 121.5 g/H
[11] = 72 h, 3 day curative, read-out: PUCCRT 3DC disease control, LV activity at 121.5 g/H
[12] = 24 h, 1 day protectant, read-out: SEPTTR 1DP disease control, LV activity at 121.5 g/H
[13] = 72 h, 3 day curative, read-out: SEPTTR 3DC disease control, LV activity at 121.5 g/H

Structure (SMILES)	pest or weed control at 100 ppm [1, 4]	pest or weed control at 100 ppm [1, 5]	pest or weed control at 100 ppm [2, 6]	pest or weed control at 100 ppm [2, 7]	melting point	pest or weed control at 25 ppm [3, 8]	pest or weed control at 25 ppm [3, 9]	pest or weed control at 121.5 g/ha [1, 10]	pest or weed control at 121.5 g/ha [1, 11]	pest or weed control at 121.5 g/ha [2, 12]	pest or weed control at 121.5 g/ha [2, 13]
COc1cc(F)ccc1C(c1ccc(F)cc1OC)[C@H](C)OC(=O)[C@H](C)NC(=S)c1nccc(OC)c1O [Compound 23]	> 80%	≤ 80%	> 80%	> 80%	59 to 75 °C	–	–	–	–	–	–
COc1cc(F)ccc1[C@@H](c1ccc(F)cc1)[C@H](C)OC(=O)[C@H](C)NC(=S)c1nccc(OC)c1O [Compound 24]	> 80%	≤ 80%	> 80%	> 80%	54 to 70 °C	–	–	–	–	–	–
CC[C@H](OC(=O)[C@H](C)NC(=S)c1nccc(OC)c1O)[C@@H](C)Oc1ccccc1 [Compound 25]	≤ 80%	–	–	–	80 to 86 °C	–	–	–	–	–	–
COc1ccnc(C(=S)N[C@@H](C)C(=O)O[C@@H](C)[C@@H](c2ccccc2)c2ccc(F)cc2C)c1O [Compound 26]	> 80%	≤ 80%	> 80%	> 80%	152 to 159 °C	–	–	–	–	–	–
COc1ccnc(C(=S)N[C@@H](C)C(=O)O[C@@H](C(C)C)[C@@H](C)Oc2ccccc2)c1O [Compound 27]	≤ 80%	–	–	≤ 80%	46 to 63 °C	–	–	–	–	–	–
COc1ccnc(C(=S)N[C@H](C)C(=O)O[C@H](C)C(c2ccc(F)cc2)c2ccc(F)cc2)c1O [Compound 28]	–	–	–	–	53 to 64 °C	–	–	–	–	–	–
COc1cc(C)ccc1C(c1ccc(C)cc1OC)[C@H](C)OC(=O)[C@H](C)NC(=S)c1nccc(OC)c1O [Compound 29]	> 80%	> 80%	> 80%	> 80%	60 to 72 °C	–	–	–	–	–	–
COc1ccnc(C(=S)N[C@@H](C)C(=O)O[C@@H](C)[C@H](Oc2ccccc2)c2ccc(F)cc2Cl)c1O [Compound 30]	> 80%	≤ 80%	> 80%	> 80%	50 to 60 °C	–	–	–	–	–	–
COc1ccnc(C(=S)N[C@@H](C)C(=O)O[C@@H](C)[C@@H](c2ccc(F)cc2)c2ccc(F)cc2C)c1O [Compound 31]	> 80%	≤ 80%	> 80%	> 80%	57 to 68 °C	–	–	–	–	–	–
COc1ccnc(C(=S)N[C@@H](C)C(=O)O[C@@H](C)C(c2ccc(F)cc2F)c2ccc(F)cc2F)c1O [Compound 32]	≤ 80%	≤ 80%	≤ 80%	> 80%	50 to 61 °C	–	–	–	–	–	–
COc1ccnc(C(=S)N[C@@H](C)C(=O)O[C@@H](C)[C@H](Oc2cccc(F)c2)C(C)C)c1O [Compound 33]	> 80%	> 80%	> 80%	≤ 80%	132 to 141 °C	–	–	–	–	–	–
COc1ccnc(C(=S)N[C@@H](C)C(=O)O[C@@H](C)[C@H](Oc2ccccc2)c2ccc(F)cc2C)c1O [Compound 35]	> 80%	≤ 80%	> 80%	> 80%	45 to 57 °C	–	–	–	–	–	–
COc1ccnc(C(=S)N[C@@H](C)C(=O)O[C@H](C(C)C)[C@H](C)Oc2ccc(F)cc2)c1O [Compound 36]	> 80%	> 80%	> 80%	≤ 80%	141 to 148 °C	–	–	–	–	–	–
CCC[C@@H](Oc1ccc(C)cc1)[C@H](C)OC(=O)[C@H](C)NC(=S)c1nccc(OC)c1O [Compound 37]	> 80%	> 80%	≤ 80%	–	125 to 133 °C	–	–	–	–	–	–
COc1ccnc(C(=S)N[C@@H](C)C(=O)O[C@@H](C)[C@H](Oc2ccc(Cl)cc2)C2CCCC2)c1O [Compound 38]	> 80%	> 80%	> 80%	≤ 80%	49 to 57 °C	–	–	–	–	–	–
COc1ccnc(C(=S)N[C@@H](C)C(=O)O[C@@H](C)[C@@H](c2ccccc2)c2ccc(F)cc2C)c1OC(C)=O [Compound 72]	–	–	–	–	–	> 80%	> 80%	> 80%	> 80%	> 80%	> 80%
COc1ccnc(C(=S)N[C@@H](C)C(=O)O[C@H](C(C)C)[C@H](C)Oc2ccc(F)cc2)c1OC(C)=O [Compound 73]	–	–	–	–	–	> 80%	> 80%	> 80%	> 80%	> 80%	> 80%
COc1ccnc(C(=S)N[C@@H](C)C(=O)O[C@@H](C)[C@H](Oc2ccccc2)c2ccc(F)cc2C)c1OC(C)=O [Compound 74]	–	–	–	–	–	≤ 80%	≤ 80%	> 80%	≤ 80%	> 80%	> 80%
COc1ccnc(C(=S)N[C@@H](C)C(=O)O[C@@H](C)[C@H](Oc2ccccc2)c2ccc(F)cc2Cl)c1OC(C)=O [Compound 75]	–	–	–	–	–	≤ 80%	≤ 80%	> 80%	≤ 80%	> 80%	> 80%
COc1ccnc(C(=S)N[C@@H](C)C(=O)O[C@@H](C)[C@H](Oc2cccc(F)c2)C(C)C)c1OC(C)=O [Compound 77]	–	–	–	–	–	> 80%	≤ 80%	> 80%	> 80%	≤ 80%	> 80%
COc1ccnc(C(=S)N[C@@H](C)C(=O)O[C@@H](C)C(c2ccc(F)cc2)c2ccc(F)cc2)c1OC(C)=O [Compound 78]	–	–	–	–	–	≤ 80%	–	> 80%	≤ 80%	> 80%	> 80%

— patent US10172358B2, “Thiopicolinamide compounds with fungicidal activity” (Dow AgroSciences LLC, priority 2016, dated 2019)
